Test results published in PubChem BioAssay AID588488 (The Scripps Research Institute Molecular Screening Center, 2011).
Activity calls are given as the source filed them.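 Rule for the calls: active = inhibition of 50% or more in at least one of the four enzyme panels; inactive = below 50% inhibition in every panel.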

Tests used:
Test in all cases: single-point PAD isozyme enzyme inhibition – biochemical, colorimetric, BAEE substrate, HTS hits, selectivity assay for PAD4 inhibitor project, late-stage follow-up (AID 588488)
[1] = molecular target: Protein-arginine deiminase type-1 (Homo sapiens) (UniProt Q9ULC6); conditions: Recombinant PAD1-4, BAEE citrulline colorimetric absorbance; PAD1; at 10 µM; stronger effect = higher value
Protein-arginine deiminase type-1 (Homo sapiens), sequence (Q9ULC6 whole entry, looked up): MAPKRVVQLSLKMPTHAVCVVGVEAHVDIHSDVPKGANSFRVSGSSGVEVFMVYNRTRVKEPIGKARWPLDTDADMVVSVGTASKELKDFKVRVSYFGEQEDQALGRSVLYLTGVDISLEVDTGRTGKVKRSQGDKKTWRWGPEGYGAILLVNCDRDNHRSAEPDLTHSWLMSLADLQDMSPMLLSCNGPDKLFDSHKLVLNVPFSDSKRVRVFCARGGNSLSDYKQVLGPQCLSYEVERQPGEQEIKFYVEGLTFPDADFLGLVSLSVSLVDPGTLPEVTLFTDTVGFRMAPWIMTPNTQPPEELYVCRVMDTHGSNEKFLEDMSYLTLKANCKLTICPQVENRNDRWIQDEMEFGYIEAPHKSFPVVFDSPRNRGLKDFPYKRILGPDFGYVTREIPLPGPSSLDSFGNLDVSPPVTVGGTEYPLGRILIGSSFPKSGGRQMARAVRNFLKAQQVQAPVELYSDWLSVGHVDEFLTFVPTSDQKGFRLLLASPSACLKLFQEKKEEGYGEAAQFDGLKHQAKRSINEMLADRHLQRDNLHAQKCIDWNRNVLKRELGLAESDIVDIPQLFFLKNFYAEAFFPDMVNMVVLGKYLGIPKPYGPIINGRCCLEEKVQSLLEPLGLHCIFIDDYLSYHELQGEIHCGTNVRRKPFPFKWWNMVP

[2] = molecular target: Protein-arginine deiminase type-2 (Homo sapiens) (UniProt Q9Y2J8); conditions: Recombinant PAD1-4, BAEE citrulline colorimetric absorbance; PAD2; at 10 µM; stronger effect = higher value
Protein-arginine deiminase type-2 (Homo sapiens), sequence (Q9Y2J8 whole entry, looked up): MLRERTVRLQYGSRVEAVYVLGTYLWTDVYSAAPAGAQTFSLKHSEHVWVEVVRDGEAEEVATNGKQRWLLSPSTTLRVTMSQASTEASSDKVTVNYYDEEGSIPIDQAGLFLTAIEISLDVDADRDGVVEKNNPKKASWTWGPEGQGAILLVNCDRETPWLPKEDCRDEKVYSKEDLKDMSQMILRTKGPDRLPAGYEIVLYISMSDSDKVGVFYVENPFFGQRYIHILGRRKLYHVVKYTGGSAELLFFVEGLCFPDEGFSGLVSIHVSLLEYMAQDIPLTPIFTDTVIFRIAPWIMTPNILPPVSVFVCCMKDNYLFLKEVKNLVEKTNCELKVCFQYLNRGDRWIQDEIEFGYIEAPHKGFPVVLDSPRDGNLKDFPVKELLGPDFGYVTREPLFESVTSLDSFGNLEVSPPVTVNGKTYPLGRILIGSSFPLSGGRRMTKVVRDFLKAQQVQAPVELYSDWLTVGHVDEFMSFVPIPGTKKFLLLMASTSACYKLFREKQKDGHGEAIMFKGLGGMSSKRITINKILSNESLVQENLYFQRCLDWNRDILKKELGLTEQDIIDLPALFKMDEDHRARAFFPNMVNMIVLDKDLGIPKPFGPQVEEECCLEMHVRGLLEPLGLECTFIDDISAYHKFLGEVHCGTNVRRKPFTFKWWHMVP

[3] = molecular target: Protein-arginine deiminase type-3 (Homo sapiens) (UniProt Q9ULW8); conditions: Recombinant PAD1-4, BAEE citrulline colorimetric absorbance; PAD3; at 10 µM; stronger effect = higher value
Protein-arginine deiminase type-3 (Homo sapiens), sequence (Q9ULW8 whole entry, looked up): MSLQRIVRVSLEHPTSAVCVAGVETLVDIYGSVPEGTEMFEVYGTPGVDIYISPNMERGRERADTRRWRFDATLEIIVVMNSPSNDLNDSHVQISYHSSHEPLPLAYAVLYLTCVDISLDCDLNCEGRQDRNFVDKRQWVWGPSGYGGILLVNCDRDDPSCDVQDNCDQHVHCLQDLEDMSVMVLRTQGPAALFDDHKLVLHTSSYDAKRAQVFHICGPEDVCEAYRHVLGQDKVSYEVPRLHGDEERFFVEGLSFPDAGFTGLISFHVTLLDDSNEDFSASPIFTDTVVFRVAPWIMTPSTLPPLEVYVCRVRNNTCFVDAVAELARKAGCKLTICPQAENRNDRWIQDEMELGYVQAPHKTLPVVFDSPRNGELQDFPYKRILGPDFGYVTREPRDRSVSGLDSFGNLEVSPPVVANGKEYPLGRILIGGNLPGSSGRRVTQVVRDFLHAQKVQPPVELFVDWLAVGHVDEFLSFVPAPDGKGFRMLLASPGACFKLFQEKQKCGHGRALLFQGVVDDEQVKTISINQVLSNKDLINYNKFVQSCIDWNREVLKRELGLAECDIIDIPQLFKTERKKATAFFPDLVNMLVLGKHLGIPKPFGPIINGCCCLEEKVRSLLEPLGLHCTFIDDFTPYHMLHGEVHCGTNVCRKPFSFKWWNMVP

[4] = molecular target: Protein-arginine deiminase type-4 (Homo sapiens) (UniProt Q9UM07); conditions: Recombinant PAD1-4, BAEE citrulline colorimetric absorbance; PAD4; at 10 µM; stronger effect = higher value
Protein-arginine deiminase type-4 (Homo sapiens), sequence (Q9UM07 whole entry, looked up): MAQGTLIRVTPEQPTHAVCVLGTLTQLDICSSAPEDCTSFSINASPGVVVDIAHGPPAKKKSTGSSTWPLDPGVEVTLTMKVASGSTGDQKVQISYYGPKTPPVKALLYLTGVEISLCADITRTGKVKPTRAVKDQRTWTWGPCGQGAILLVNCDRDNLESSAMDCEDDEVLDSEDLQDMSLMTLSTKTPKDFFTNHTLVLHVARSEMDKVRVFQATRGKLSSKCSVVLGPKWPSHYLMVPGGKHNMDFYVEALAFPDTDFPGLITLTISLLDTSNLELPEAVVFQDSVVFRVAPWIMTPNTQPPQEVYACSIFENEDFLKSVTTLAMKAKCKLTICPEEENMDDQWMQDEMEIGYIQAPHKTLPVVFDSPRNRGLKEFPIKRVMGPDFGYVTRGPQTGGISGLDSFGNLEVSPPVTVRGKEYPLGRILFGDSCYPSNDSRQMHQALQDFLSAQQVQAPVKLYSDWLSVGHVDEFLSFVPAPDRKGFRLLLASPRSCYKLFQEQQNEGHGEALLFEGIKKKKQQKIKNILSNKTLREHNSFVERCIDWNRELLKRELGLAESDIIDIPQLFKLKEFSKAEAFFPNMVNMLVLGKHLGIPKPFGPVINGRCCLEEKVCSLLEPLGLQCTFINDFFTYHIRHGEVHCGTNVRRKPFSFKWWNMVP

| inhibition [1] | inhibition [2] | inhibition [3] | inhibition [4] | Compound |
| --- | --- | --- | --- | --- |
| 3% (inactive) | 39% (inactive) | -12% (inactive) | 28% (inactive) | N#CCCn1[nH]c(-c2ccccc2)cc1=O |
| 5% (inactive) | 17% (inactive) | -6% (inactive) | 1% (inactive) | Cc1cc(N(C)NC(=S)Nc2ccccc2)nc(C)n1 |
| 21% (inactive) | 15% (inactive) | -2% (inactive) | 13% (inactive) | Cc1ccc(CNC(=O)c2ccc(C)c(S(=O)(=O)N3CCCCC3)c2)cc1 |
| 13% (inactive) | 10% (inactive) | -12% (inactive) | 17% (inactive) | N#CCCN(C(=O)Cn1nc(C(=O)O)c2ccccc2c1=O)c1ccccc1 |
| 6% (inactive) | 20% (inactive) | -3% (inactive) | 26% (inactive) | COc1cccc(NC(=O)CN(C)C(=O)C23CC4CC(CC(Cl)(C4)C2)C3)c1 |
| 3% (inactive) | 18% (inactive) | 6% (inactive) | 16% (inactive) | CCN(CC)c1cccc(OC2=NS(=O)(=O)c3ccccc32)c1 |
| 4% (inactive) | 21% (inactive) | -3% (inactive) | 16% (inactive) | CC(=O)N(Cc1cc(=O)[nH]c2ccccc12)c1cccc(C)c1 |
| 5% (inactive) | 26% (inactive) | -3% (inactive) | 8% (inactive) | COc1cccc(NC(=O)C2c3cc(OC)c(OC)cc3C(=O)N(C)C2c2cccnc2)c1 (configuration not stated) |
| 17% (inactive) | 13% (inactive) | -2% (inactive) | 11% (inactive) | S=C(NCc1ccco1)Nc1cccc(Cl)c1 |
| 9% (inactive) | 7% (inactive) | -1% (inactive) | 21% (inactive) | COc1ccc(C2C(C#N)=C(N)N(N(C)C)C3=C2C(=O)CCC3)cc1 (configuration not stated) |
| 8% (inactive) | 45% (inactive) | 3% (inactive) | 25% (inactive) | Cn1c(=O)c2c(ncn2CC(=O)Nc2nc(-c3ccccc3Cl)cs2)n(C)c1=O |
| 1% (inactive) | 6% (inactive) | -7% (inactive) | -1% (inactive) | Cc1cc(-c2nnc(SCC(=O)Nc3ccc(F)c(F)c3)n2N)n[nH]1 |
| 22% (inactive) | 3% (inactive) | -18% (inactive) | 0% (inactive) | Cc1c(NC(=O)CSc2nccn2C)c(=O)n(-c2ccccc2)n1C |
| 10% (inactive) | 15% (inactive) | -14% (inactive) | 6% (inactive) | COC(=O)c1cc(C)nc(Sc2ccccc2N)n1 |
| 25% (inactive) | -8% (inactive) | 8% (inactive) | 24% (inactive) | Cc1cc2ncn(-c3ncccc3[N+](=O)[O-])c2cc1C |
| 0% (inactive) | 15% (inactive) | 17% (inactive) | 10% (inactive) | CCN(CC)S(=O)(=O)c1ccc(N=NC2=C(O)CCCC2=O)cc1 |
| 14% (inactive) | 26% (inactive) | 3% (inactive) | 20% (inactive) | COc1ccc(-c2cc(=O)[nH][nH]2)cc1 |

| inhibition [1] | inhibition [2] | inhibition [3] | inhibition [4] | Compound |
| --- | --- | --- | --- | --- |
| -2% (inactive) | 3% (inactive) | -2% (inactive) | 17% (inactive) | COc1cccc2cc(C(=O)NC3CC(C)(C)NC(C)(C)C3)c(=O)oc12 |
| 2% (inactive) | 17% (inactive) | -3% (inactive) | 16% (inactive) | Cc1nn(-c2ccccc2)c(C)c1NC(=O)COc1ccc(Cl)cc1Cl |
| 5% (inactive) | 20% (inactive) | -2% (inactive) | -3% (inactive) | O=C(NCC1CCCO1)c1cc2c([nH]c3ccccc32)c(-c2ccc(F)cc2)n1 (configuration not stated) |
| 27% (inactive) | 20% (inactive) | 2% (inactive) | 42% (inactive) | CN(C)CCCNc1cn[nH]c(=O)c1Cl |
| 7% (inactive) | 17% (inactive) | -3% (inactive) | 12% (inactive) | Cc1ccc(C2CC(=O)Oc3cc(O)ccc32)cc1 (configuration not stated) |
| 5% (inactive) | 9% (inactive) | -24% (inactive) | 3% (inactive) | COc1ccc(CCNC(=O)COC(=O)c2ccc(C)s2)cc1 |
| -7% (inactive) | 22% (inactive) | -9% (inactive) | 6% (inactive) | CN(C)CCN(Cc1ccccc1)c1ccccn1 |
| 31% (inactive) | 14% (inactive) | -3% (inactive) | 18% (inactive) | COc1ccc(S(=O)(=O)Nc2ccccc2C)cc1 |
| 6% (inactive) | 4% (inactive) | -6% (inactive) | 15% (inactive) | Cc1c(C(=O)N2CCCCC2)c(S(=O)(=O)N2CCN(c3ccc(Cl)cc3)CC2)c(C)n1C |
| 8% (inactive) | 27% (inactive) | 7% (inactive) | 12% (inactive) | Cc1nonc1OC(C)CNc1ccc([N+](=O)[O-])cc1 (configuration not stated) |
| 8% (inactive) | -10% (inactive) | -11% (inactive) | 14% (inactive) | CC(NC(=O)Nc1ccc(O)cc1)(C(F)(F)F)C(F)(F)F |
| -3% (inactive) | 7% (inactive) | -4% (inactive) | 1% (inactive) | Cc1nn(-c2cccc(Cl)c2)c2c1C(c1cccnc1)C(C#N)=C(N)O2 (configuration not stated) |
| 18% (inactive) | 20% (inactive) | -20% (inactive) | 20% (inactive) | COc1cccc(/C=C2/CN(C)CC3=C2OC(N)=C(C#N)C3c2cccc(OC)c2)c1 (configuration not stated) |
| 17% (inactive) | 9% (inactive) | -19% (inactive) | 18% (inactive) | Cc1oc2c(C)c(O)ccc2c(=O)c1-c1ccc2ccccc2n1 |
| 1% (inactive) | -6% (inactive) | -4% (inactive) | 4% (inactive) | O=c1cc(-c2ccc(Cl)cc2)[nH][nH]1 |
| 27% (inactive) | 12% (inactive) | -2% (inactive) | 9% (inactive) | CCOc1nc(Nc2ccc(OC)cc2OC)nc(OCC)n1 |
